These results are taken from US20050074879A1, “Antisense oligonucleotide modulation of STAT3 expression” (priority 2000, published 2005).

Common to all, as to assay type: cell-based
For data set [1], the system named is Human STAT3 mRNA. The data set can be described thus: Human STAT3 mRNA dose response in T-24 cells, real-time PCR with PPS 199 (Table 18). Conditions: 16 hours, − decrease, + increase relative to untreated control. From the text:
The transitional cell bladder carcinoma cell line T-24 was obtained from the American Type Culture Collection (ATCC) (Manassas, Va.). T-24 cells were routinely cultured in complete McCoy's 5A basal media (Gibco/Life Technologies, Gaithersburg, Md.) supplemented with 10% fetal calf serum (Gibco/Life Technologies, Gaithersburg, Md.), penicillin 100 units per mL, and streptomycin 100 micrograms per mL (Gibco/Life Technologies, Gaithersburg, Md.). Cells were routinely passaged by trypsinization and dilution when they reached 90% confluence. Cells were seeded into 96-well plates (Falcon-Primaria #3872) at a density of 7000 cells/well for use in RT-PCR analysis.
Control oligonucleotides used were ISIS 129695 ([…], SEQ ID NO: 391), ISIS 129694 ([…] SEQ ID NO: 392), ISIS 129690 ([…] SEQ ID NO: 393), ISIS 129686 ([…] SEQ ID NO: 394), ISIS 116847 ([…], SEQ ID NO: 395) and ISIS 113529 ([…] SEQ ID NO: 396). These are universal scrambled control oligonucleotides.
(§1) T-24 cells were treated with 18.75, 37.5, 75, or 150 nM of oligonucleotide mixed with 3 ug/mL LIPOFECTIN per 100 nM oligonucleotide as described by other examples herein. Untreated cells served as controls. Following 16 hours of treatment, RNA was prepared from cells for subsequent real-time PCR analysis.
Human STAT3 mRNA expression levels were quantitated by real-time PCR using primer probe set PPS 199 and gene target quantities were normalized using Ribogreen as described in other examples herein. A “−” or “+” designation indicates a decrease or increase of STAT 3 mRNA expression, respectively, relative to untreated control cells.
Background: In qPCR the cycle at which signal appears reflects the starting amount.

Data set [2] deals with Human STAT3 mRNA. Briefly: Human STAT3 mRNA dose response in A549 cells, real-time PCR with PPS 199 (Table 20). The note with it: 16 hours, LIPOFECTIN, − decrease, + increase relative to untreated control cells. The protocol: An additional dose-response experiment was preformed in A549 cells. A549 cells were treated with 18.75, 37.5, 75, or 150 nM of oligonucleotide mixed with 3 ug/mL LIPOFECTIN per 100 nM oligonucleotide as described by other examples herein. Control oligonucleotides used were ISIS 129686 (SEQ ID NO: 394) and ISIS 129690 (SEQ ID NO: 393). Untreated cells served as controls. Following 16 hours of treatment, RNA was prepared from cells for subsequent real-time PCR analysis.
Human STAT3 mRNA expression levels were quantitated by real-time PCR using primer probe set PPS 199 and gene target quantities were normalized using Ribogreen as described in other examples herein. A “−” or “+” designation in the dose response results indicates a decrease or increase of STAT 3 mRNA expression, respectively, relative to untreated control cells.

The test system of data set [3] is Human STAT3 mRNA. The data set can be described thus: Human STAT3 mRNA dose response in T-24 cells, real-time PCR with PPS 2033 (Table 19). The note with it: 16 hours, − decrease, + increase relative to untreated control. As to the method: The dose-response was repeated in T-24 cells and gene target quantities were measured using a different primer-probe set, called PPS 2033 herein. PPS 2033 comprises probes and primers to human STAT3 were designed to hybridize to a human STAT3 sequence, using published sequence information (incorporated herein as SEQ ID NO: XXX). For PPS 2033 the PCR primers were: forward primer: GAGGCCCGCCCAACA (SEQ ID NO: 397) reverse primer: […] (SEQ ID NO: 398) and the PCR probe was: FAM-CTGCCTAGATCGGC-TAMRA (SEQ ID NO: 399) where FAM is the fluorescent reporter dye and TAMRA is the quencher dye. Gene target quantities obtained by real time RT-PCR are normalized by quantifying total RNA using RiboGreen™ (Molecular Probes, Inc. Eugene, Oreg.). Control oligonucleotides used were ISIS 129695 (SEQ ID NO: 391), ISIS 129694 (SEQ ID NO: 392), ISIS 129690 (SEQ ID NO: 393), ISIS 129686 (SEQ ID NO: 394), ISIS 116847 (SEQ ID NO: 395) and ISIS 113529 (SEQ ID NO: 396).
as §1
Human STAT3 mRNA expression levels were quantitated by real-time PCR using primer probe set PPS 2033 and gene target quantities were normalized using Ribogreen as described in other examples herein. A “−” or “+” designation indicates a decrease or increase of STAT 3 mRNA expression, respectively, relative to untreated control cells.

In data set [4] the test system is Human STAT3 mRNA. Briefly: STAT3 mRNA in A549 cells treated with dsRNAs (duplex antisense compounds), real-time PCR PPS 199 (Table 22). Conditions: treated 4 hours, harvested 16 hours later, − decrease, + increase vs untreated control. The protocol: When cells reached 80% confluency, they are treated with duplexed antisense compounds of the invention. For cells grown in 96-well plates, wells are washed once with […] OPTI-MEM-1 reduced-serum medium (Gibco BRL) and then treated with 130 μL of OPTI-MEM-1 containing 12 μg/mL LIPOFECTIN (Gibco BRL) and the desired duplex antisense compound at a final concentration of 200 nM (a ratio of 6 μg/mL LIPOFECTIN per 100 nM duplex antisense compound). After 5 hours of treatment, the medium is replaced with fresh medium. Cells are harvested 16 hours after treatment, at which time RNA is isolated and target reduction measured by RT-PCR.
The compounds in Table 21 were tested for their effects on human STAT3 expression in A549 cells. ISIS 330249 targets the same site as the antisense oligonucleotid ISIS 106734 (SEQ ID NO: 45) and ISIS 330247 targets the same site as the antisense oligonucleotide ISIS 113176 (SEQ ID NO: 115); thus, ISIS 106734 and ISIS 113176 were also tested. A549 cells were treated with oligonucleotide mixed with LIPOFECTIN (Invitrogen Corporation, Carlsbad, Calif.) as described herein. The control oligonucleotide used was ISIS 129698 ([…], SEQ ID NO: 402). Cells were treated with oligonucleotide for 4 hours and harvested an additional 16 hours later. Untreated cells served as a control.
Human STAT3 mRNA expression levels were quantitated by real-time PCR using primer probe set PPS 199 and gene target quantities were normalized using Ribogreen as described in other examples herein. A “−” or “+” designation indicates a decrease or increase of STAT 3 mRNA expression, respectively, relative to untreated control cells. Where present, “N.D.” indicates not determined.

Another data set deals with Mouse B16 melanoma cells. The data set can be described thus: Cell number of B16 melanoma cells after antisense treatment. The note with it: 24 hours after transfection. As to the method: Mouse B16 melanoma cells were grown in RPMI 1640 (Life Technologies, Inc., Grand Island, N.Y.) medium supplemented with 10% fetal bovine serum, 2 mM L-glutamine, 1 mM sodium pyruvate, 1% MEM nonessential amino acids and 100 IU/ml penicillin/streptomycin.
Cells were treated with ISIS 17152, targeted to mouse STAT3, or the 3-base mismatch control, ISIS 28084 ([…]; SEQ ID NO: 151). Cells were transfected with oligonucleotide using LipofectAMINE PLUSJ reagent (GibcoBRL). Oligonucleotide was pre-complexed with LipofectAMINE PLUSJ by adding the oligonucleotide to 100 μl serum-free RPMI 1640 medium, then 6 μl LipofectAMINE PLUSJ reagent was added, the sample was mixed well and incubated for 15 minutes at room temperature. An additional 4 μl of LipofectAMINE PLUSJ reagent was diluted to 100 μl in serum-free RPMI. This diluted LipofectAMINE PLUSJ was mixed with the pre-complexed oligonucleotide/LipofectAMINE PLUSJ mixture and incubated for 15 minutes at room temperature. 800 μl of serum-free RPMI 1640 was added, and the resulting oligonucleotide-LipofectAMINE PLUSJ-medium mixture (approximately 1 ml) was added to cells in a 6-well plate. After 3 hours incubation, 1 ml of RPMI 1640 supplemened with 20% fetal bovine serum was added. Oligonucleotide concentrations were 200 nM or 300 nM.
24 hours after transfection, cells were counted to determine the effect of antisense treatment on cell death. Cells were harvested at 24 hours post transfection for western blot analysis and at 48 hours post-transfection for Annexin-V staining for apoptosis.

On to “129686 (antisense CGTTATTAACCTCCGTTGAA; all phosphorothioate, sugars by position and methylation of C not given here; 2'-MOE wings and deoxy gap) [compound 129686]”, for which the “Percent change of STAT3 expression using PPS 199” value in the data set on Human STAT3 mRNA [1] (18.75 nM oligonucleotide) is listed as “+2%”; with Human STAT3 mRNA [1] (37.5 nM oligonucleotide) it was “+1%”; in the data set on Human STAT3 mRNA [1] (75 nM oligonucleotide), −5%; in the data set with Human STAT3 mRNA [1] (150 nM oligonucleotide) it was “+1%”. The “Percent change of STAT3 expression in A549 cells using PPS 199” value with Human STAT3 mRNA [2] (18.75 nM oligonucleotide) was “+27%”; with Human STAT3 mRNA [2] (37.5 nM oligonucleotide) it was “+23%”; with Human STAT3 mRNA [2] (75 nM oligonucleotide), “+22%”; in the data set with Human STAT3 mRNA [2] (150 nM oligonucleotide), “+19%”. Also, the “Percent change of STAT3 expression using PPS 2033” value is on record as “+20%” in the data set on Human STAT3 mRNA [3] (18.75 nM oligonucleotide), “+16%” with Human STAT3 mRNA [3] (37.5 nM oligonucleotide), “+25%” with Human STAT3 mRNA [3] (75 nM oligonucleotide) and “+9%” with Human STAT3 mRNA [3] (150 nM oligonucleotide).

On to “106734 (CATTCTTGGGATTGTTGGTC; all C 5-methyl, all phosphorothioate, sugars by position not given here; further chemistry not fully specified) [compound 106734]”, for which the “Percent change of STAT3 expression in A549 cells using PPS 199” value is −2% in the data set with Human STAT3 mRNA [2] (18.75 nM oligonucleotide), −16% in the data set with Human STAT3 mRNA [2] (37.5 nM oligonucleotide), −56% with Human STAT3 mRNA [2] (75 nM oligonucleotide) and −73% in the data set with Human STAT3 mRNA [2] (150 nM oligonucleotide). Also, the “Percent change in STAT3 mRNA expression in A549 cells by duplex antisense compounds” value in the data set on Human STAT3 mRNA [4] (12.5 nM oligonucleotide) is reported as −5%; in the data set with Human STAT3 mRNA [4] (25 nM oligonucleotide), −5%; in the data set on Human STAT3 mRNA [4] (50 nM oligonucleotide), −40%; in the data set on Human STAT3 mRNA [4] (100 nM oligonucleotide), −56%; with Human STAT3 mRNA [4] (200 nM oligonucleotide), −67%; with Human STAT3 mRNA [4] (400 nM oligonucleotide), −77%.

With “129690 (antisense TTAGAATACGTCGCGTTATG; all phosphorothioate, sugars by position and methylation of C not given here; 2'-MOE wings and deoxy gap) [compound 129690]”, the “Percent change of STAT3 expression using PPS 199” value in the data set on Human STAT3 mRNA [1] (18.75 nM oligonucleotide) was “+2%”; in the data set on Human STAT3 mRNA [1] (37.5 nM oligonucleotide), “+7%”; in the data set on Human STAT3 mRNA [1] (75 nM oligonucleotide), “+6%”; with Human STAT3 mRNA [1] (150 nM oligonucleotide), “+8%”. Moreover, the “Percent change of STAT3 expression in A549 cells using PPS 199” value in the data set on Human STAT3 mRNA [2] (18.75 nM oligonucleotide) is on record as “+30%”; in the data set with Human STAT3 mRNA [2] (37.5 nM oligonucleotide) it was “+27%”; in the data set with Human STAT3 mRNA [2] (75 nM oligonucleotide), “+16%”; in the data set with Human STAT3 mRNA [2] (150 nM oligonucleotide), “+27%”. The “Percent change of STAT3 expression using PPS 2033” value was “+4%” with Human STAT3 mRNA [3] (18.75 nM oligonucleotide), “+10%” with Human STAT3 mRNA [3] (37.5 nM oligonucleotide), “+8%” in the data set on Human STAT3 mRNA [3] (75 nM oligonucleotide) and “+11%” with Human STAT3 mRNA [3] (150 nM oligonucleotide).

“AAAAAGAGGCCTGATTGCCC (listed as DNA, chemistry not given here) [ISIS 28084, reference compound]”: the cell number with Mouse B16 melanoma cells (200 nM, Expt 1) was 10.2 × 10^5; in the data set on Mouse B16 melanoma cells (200 nM, Expt 2), 5.0 × 10^5; in the data set on Mouse B16 melanoma cells (200 nM, Expt 3), 3.5 × 10^5; in the data set on Mouse B16 melanoma cells (300 nM, Expt 2) it was 9.1 × 10^5; in the data set with Mouse B16 melanoma cells (300 nM, Expt 3) it was 3.3 × 10^5.

For the substance “129698 (antisense TTTGATCGAGGTTAGCCGTG; listed as DNA, chemistry not given here) [compound 129698]”, the “Percent change in STAT3 mRNA expression in A549 cells by duplex antisense compounds” value with Human STAT3 mRNA [4] (50 nM oligonucleotide) is “+41%”; in the data set on Human STAT3 mRNA [4] (100 nM oligonucleotide), “+42%”; with Human STAT3 mRNA [4] (200 nM oligonucleotide) it was “+1%”; in the data set with Human STAT3 mRNA [4] (400 nM oligonucleotide), “+22%”.
